# PubChem BioAssay AID1421 (Emory University Molecular Libraries Screening Center, 2008)
# Molecular target: Prostaglandin E2 receptor EP2 subtype (Homo sapiens) (UniProt P43116)
# Test: compounds shifting PGE2 potency at EP2 – cell-based, human EP2, PGE2 EC50 shift, dose response (AID 1421)
# Conditions: EP2-expressing cells, PGE2 EC50 shift by compound; measured here: PGE2 EC50 at 6.7 uM compound
# Sequence of Prostaglandin E2 receptor EP2 subtype (Homo sapiens) (P43116 whole entry, looked up): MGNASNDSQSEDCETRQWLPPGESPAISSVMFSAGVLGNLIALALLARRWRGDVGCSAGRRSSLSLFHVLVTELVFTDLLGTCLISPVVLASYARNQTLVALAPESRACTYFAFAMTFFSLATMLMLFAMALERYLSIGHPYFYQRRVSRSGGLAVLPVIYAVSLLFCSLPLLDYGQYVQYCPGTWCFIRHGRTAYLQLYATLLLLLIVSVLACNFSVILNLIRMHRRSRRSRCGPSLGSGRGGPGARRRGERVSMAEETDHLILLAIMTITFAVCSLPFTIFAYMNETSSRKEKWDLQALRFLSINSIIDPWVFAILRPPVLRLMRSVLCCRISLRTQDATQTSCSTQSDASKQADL
row,SMILES,PGE2 EC50 with compound [nM]
1,CCn1c2ccccc2c2cc(Nc3cc(C)nc4ncnn34)ccc21,2.83
2,CCOC(=O)c1c(C=O)c(C)n(Cc2ccccc2Cl)c1C,1.34
3,CC(C)c1ccc2c(c1)CCC1C(C)(C(N)=O)CCCC21C (stereo unspecified),0.9
4,CC(=O)NC(c1ccccc1)c1cccnc1 (stereo unspecified),1.03
5,CCOC(=O)c1c(-c2ccc(C)cc2)csc1NC(=O)CCN1CCOCC1,1.21
6,COC(=O)c1c(-c2ccc(F)cc2)csc1NC(=O)C1CCCO1 (stereo unspecified),2.48
7,COc1ccc(C(=O)NCC(=O)n2nc(C)cc2C)cc1OC,1.6
8,COc1cnc(SCc2c(Cl)cccc2Cl)nc1Cl,1.76
9,Brc1ccc(Cn2c(-c3ccc(Br)o3)nc3ccccc32)o1,2.59
10,COCCCN(C(=O)c1ccco1)c1nc(-c2cc(OC)ccc2OC)cs1,0.9
11,CCOc1cc(/C=N/NC(N)=O)ccc1OC(=O)c1ccc(C)cc1,1.52
12,Cc1cc(Oc2ccccc2F)nc(NCc2ccccc2)n1,1.34
13,CCOC(=O)c1c(CC(C)C)csc1/N=C/C1C(=O)CCCC1=O,1
14,Cc1cccnc1N(C(=O)Nc1cccc(Cl)c1)C1=NCC(C)(C)S1,1.22
15,C=CCSc1ncnc2sc(C)c(C)c12,1.3
16,CN(/N=C/C=C/c1ccccc1)C1=NS(=O)(=O)c2ccccc21,0.68
17,COc1cc(C2Oc3cc(C4Oc5cc(O)cc(O)c5C(=O)C4O)ccc3OC2CO)ccc1O (stereo unspecified),1.15
18,CC(=C\c1ccccc1)/C=C1/SC(=S)N(C(C(=O)O)C(C)C)C1=O (stereo unspecified),1.31
19,O=C(O)c1cc(C(=O)O)cc(N2C(=O)c3ccccc3C2=O)c1,0.83

row,SMILES,PGE2 EC50 with compound [nM]
1,COc1ccc(N=N/C(=C\O)C(=O)c2cccs2)cc1,1.42
2,Cc1ccc(Oc2nc(-c3ccccc3)ncc2S(C)(=O)=O)cc1,1.12
3,COc1ccc(OC)c(C2=Nn3c(nnc3-c3ccco3)SC2)c1,0.93
4,CC(NC(c1ccccc1)c1ccccc1)C(=O)N1CCCc2ccccc21 (stereo unspecified),1.25
5,CC1(C)Cc2nc3sc4c(SCC(=O)NC(c5ccccc5)c5ccccc5)ncnc4c3cc2CO1,1.48
6,C=CCSc1nccc(-c2cc(Cl)sc2Cl)n1,1.07
7,CCn1c2ccccc2c2cc(/C=N/n3c(C)nnc3C)ccc21,1.15
8,CCOc1cc(S(=O)(=O)NCCc2cccc(C)c2)c(OCC)cc1-n1cnnn1,1.21
9,Cc1cc(C)c(S(=O)(=O)c2ccccc2)c(OC(=O)c2c(Cl)cc(Cl)cc2Cl)n1,1.27
10,O=C(c1cc2sccc2n1Cc1ccc(F)cc1)N1CCCc2ccccc21,1.56
11,COc1ccccc1CNc1cc(C)ccc1C,0.77
12,CC1(C)C2CCC1(C)C(OC(=O)CC(=O)O)C2 (stereo unspecified),0.72
13,Cn1c(CNc2ccc(F)cc2)nnc1SCC(=O)NNC(=O)Cc1ccccc1,1.63
14,CCOP(=O)(OCC)c1nc(-c2ccc(C)cc2)oc1NCc1ccccc1,0.83
15,CC(=O)c1sc2nc(-c3ccc(C)cc3)c3c(c2c1N)CCCC3,2.47
16,Cc1nn2c(N3CCN(C(=O)c4ccco4)CC3)cc(C(C)(C)C)nc2c1-c1ccccc1,1.15
17,O=C(O)c1ccc(-c2ccccc2Cl)o1,1.44
18,O=C(NCc1ccc(F)cc1)c1ccccc1OCc1ccccc1,1.03
19,O=C(Nc1ccccc1Br)c1ccccc1-c1ccccc1,2.5

row,SMILES,PGE2 EC50 with compound [nM]
1,C=CCc1cc(C=O)cc(OC)c1OCc1ccc(Cl)cc1,0.57
2,O=C(CSc1ncnc2c1oc1ccccc12)Nc1ccccc1C(F)(F)F,1.17
3,C=CCOc1ccc2c(c1)C(=NO)c1cc(OCC=C)ccc1-2,0.62
4,CCOC(=O)c1sc2nc(C)nc(N3CCN(c4ncccn4)CC3)c2c1C,0.62
5,CN(Cc1cc(Br)cc(Br)c1O)Cc1c(O)ccc2ccccc12,1.22
6,CCOc1ccc(N(Cc2ccc(OC)cc2)C(=O)c2ccco2)cc1,1.12
7,O=C(Nc1ccccc1Oc1ccccc1)c1ccc(Br)o1,1.05
8,Cc1ccc(N(Cc2ccccc2)Cc2ccccc2)cc1,1.7
9,COc1cccc2[nH]c3c(N4CC(C)CC(C)C4)ncnc3c12 (stereo unspecified),1.15
10,COC(=O)c1sc2nc(-c3ccccc3)c3c(c2c1N)CCCC3,0.33
11,CCCCOC(=O)n1c(=S)oc2cc(Cl)ccc21,0.85
12,CC(=O)CSc1ncnc2sc3c(c12)CCC(C)C3 (stereo unspecified),1.75
13,CCCCNCC(=O)Nc1sc(C)c(C)c1C(=O)OCC,2.33
14,CC(C)n1cc(-c2ccc(Cl)cc2)cc(C#N)c1=O,1.21
15,CC1=CC(C)(C)N2C(=O)C3(SCC(=O)N3c3ccc(F)cc3)c3cc(C)cc1c32 (stereo unspecified),1.12
16,O=C(Nc1ccccc1N1CCCCC1)c1ccc(Cl)c([N+](=O)[O-])c1,1.23
17,COc1cc(O)c2c(=O)cc(C)oc2c1CC=C(C)C,2.64
18,c1ccc(-c2nn3c(-c4ccccc4)nnc3s2)cc1,0.84
